Data published in US20070059339A1, “1-O-BETA-D-glucopyranosylgeraniol-10,5-olide and use thereof” (ISKRA INDUSTRY CO., LTD., priority 2005, published 2007).
“Also recorded” adds a separate entry of the source. Marks after values point to notes of the source that are not given here.

How the values were obtained:
[1] = Hair growth ameliorating action on hair-removed back of mice, transdermal administration; format: in vivo, C3H male mice; conditions: for Hair growth score versus control group (FIG. 9): 10 mg once a day
Text: 6 week-old C3H male mice (Nippon SLC, body weight: about 30 g) were pre-bred for 1 week, then, divided into two groups of a control group and an administration group (4 mice for each group). Hair on the back of the mice in both groups was removed with an electric shaver, and hair growth effect was investigated. […] For the mice in the control group, 45% water-containing ethanol was transdermally administered instead of the specimen solution for 28 days.
For observation of hair growth condition, hair growth score and hair length were measured.
For measurement of hair growth score, the back of a mouse on which a specimen solution or 45% water-containing ethanol had been applied was visually observed, and based on the conditions directly after hair removal, a case of no change was endowed with 0 point, a case of color change to blue at a center portion on the back was endowed with 1 point, a case of color change from blue black to gray at a center portion on the back was endowed with 2 points, a case of observation of hair growth at a center portion on the back was endowed with 3 points, and a case of covering about 50% at a center portion on the back with back hair and recovery of color before hair removal at a center portion on the back was endowed with 4 points. The score average value and the standard error of the mice in both the groups were measured. Since there was observed […] irregularity in hair growth score between the control group and the administration group, the Mann-Whitney U-test was carried out as a significant difference test between both groups.
On the other hand, for measurement of hair length, part of hair was collected every one week, then, 10 hairs were selected randomly while removing extremely longer hairs and extremely shorter hairs, and lengths of them were measured by a microscope.

[2] = Oral administration for two weeks at 2500 mg/kg per day, observation of side effects; format: in vivo; conditions: ten ICR male mice, versus control group
[3] = Obesity ameliorating, lipid metabolism ameliorating and hypoglycemic action in mice bred with a high fat diet; format: in vivo, ddY male SPF mice
Text: 6 week-old ddY male SPF mice (Nippon .SLC, body weight: about 30 g) were pre-bred for 1 week, then, divided into two groups of a control group and an administration group (5 mice for each group). Each of the mice in both the groups was bred for 6 weeks with a high fat diet (lard 40%, corn starch 10%, granulated sugar 9%, mineral mix 4%, vitamin mix 1%, casein 29%, cellulose 5%, lactose 2%). For the mice in the administration group, a specimen solution prepared by dissolving the compound (I) in purified water was continuously administered for 6 weeks with a dose of 250 mg/kg once a day while allowing water-drinking, and the body weight was measured at a frequency of once a week, during the feeding period with the high fat diet. For the mice in the control group, purified water was administered for 6 weeks instead of the specimen solution while allowing water-drinking.
The average value of the body weight of mice in each group and the standard error thereof were measured, and a significant difference test (t-test) between both the groups was carried out.
On the other hand, after completion of the above-mentioned continuous administration allowing water-drinking for 6 weeks, serum was collected from each mouse and blood biochemical values were measured, and liver and fat were excised and the weights of them were measured, respectively. Using the respective measurement results, the average value and the standard error were measured for each group, and a significant difference test (t-test) was carried out between both the groups.

[4] = 250 mg/kg once a day for 6 weeks, average +/- standard error of five mice
[5] = serum after 6 weeks, 250 mg/kg once a day, average +/- standard error of five mice

CC(C)=CC1C/C(=C/CO[C@@H]2OC(CO)[C@@H](O)C(O)C2O)C(=O)O1 (stereo partly drawn) [compound (I), 1-O-β-D-glucopyranosylgeraniol-10,5-olide]
Hair growth score versus control group (FIG. 9) ([1]; day 7 to day 17 after transdermal administration): tended to be higher
Hair growth score versus control group (FIG. 9) ([1]; days 13, 15 and 16 after transdermal administration, Mann-Whitney U-test): significantly higher
Hair length versus control group ([1]; hair collected every one week, 10 hairs measured by microscope, 10 mg transdermally once a day, data not shown): no significant difference
Side effect [2]: did not provide a recognizable side effect; also recorded: no side effect was recognized at all
Weight of fat, around kidney [3, 4]: 0.035 ± 0.010 g
Weight of fat, around posterior abdominal wall [3, 4]: 0.186 ± 0.096 g
Body weight versus control group (FIG. 8) ([3]; 250 mg/kg once a day for 6 weeks, weighed once a week): the body weight transited at a lower level
Blood biochemical value, blood glucose level ([3]; after 6 weeks, 250 mg/kg once a day, average +/- standard error of five mice): 183 +/− 35.7** mg/dL
Weight of liver ([3]; compound 250 mg/kg once a day for 6 weeks, average +/- standard error of five mice): 1.124 ± 0.124 g
Blood biochemical value, total cholesterol [3, 5]: 118 ± 22.3 mg/dL
Blood biochemical value, triglyceride [3, 5]: 26 ± 15.8 mg/dL
